Test results taken from article PMC11477298, “Small Molecules Inducing Autophagic Degradation of Expanded Polyglutamine Protein through Interaction with Both Mutant ATXN3 and LC3” (International Journal of Molecular Sciences, 2024).

How the values were obtained:
[1] = MTT compound cytotoxicity assay; format: cell-based, human; details: human, ATXN3-Q75-GFP SH-SY5Y cells, 0.1–100 μM compound, viability analyzed the next day, n = 3
Method: (§1) For the compound cytotoxicity assay, ATXN3-Q75-GFP SY5Y cells (2 × 10^4) were plated into 96-well dishes, grown for 20 h, and treated with 0.1–100 μM test compounds. After 1 day, 3-(4,5-dimethylthiazol-2-yl)-2,5-diphenyltetrazolium bromide (MTT, 5 mg/mL) (Sigma-Aldrich, St. Louis, MO, USA) was added to the cells and incubated for 3 h at 37 °C. Lysis buffer (10% Triton X-100, 0.1 N HCl, 18% isopropanol) was then added to dissolve the insoluble formazan crystals. The absorbance of the purple-colored solution was measured at optical density (OD) 570 nm by using a FLx800 fluorescence microplate spectrophotometer (Bio-Tek, Winooski, VT, USA). The half-maximal inhibitory concentration (IC50) was calculated through the construction of a dose–response curve.

[2] = system: ATXN3-Q75-GFP SH-SY5Y cells; assay: Confocal microscopy of LC3 puncta, ATXN3-Q75 aggregates and P62 colocalization; format: cell-based, human; details: compound 10 μM, range over trehalose and the four compounds; for Colocalization coefficient of ATXN3-Q75-GFP with LC3 puncta: untreated 0.014; for Colocalization coefficient of LC3 with P62: untreated 0.21; for LC3 puncta per cell: untreated induced 2.7
Method: ATXN3-Q75-GFP SY5Y cells were seeded onto 12-well plates (1 × 10^5/well) containing poly-L-lysine-coated coverslip on day 1; treated with retinoic acid, test compounds, and doxycycline on day 2; and fixed, permeabilized, and blocked on day 8, as described. The primary anti-LC3 antibody (1:1000; Cell Signaling #83506, Danvers, MA, USA) or anti-P62 antibody (1:1500; Cell Signaling #5114) was used to stain cells at 4 °C overnight. After washing with PBS containing 0.1% Tween 20 (PBST), cells were incubated for 2 h at room temperature with Cy5-conjugated (1:1000, Jackson ImmunoResearch 715-175-150) or Alexa Fluor 555-conjugated (1:500; Invitrogen #A-31572) secondary antibody, and washed three times with PBST. Nuclei were detected using DAPI (0.1 μg/mL; Sigma-Aldrich). The stained cells on coverslips were mounted onto microscope slides with Vectashield antifade mounting medium (Vector Laboratories, Newark, CA, USA) and examined using a Zeiss LSM880 confocal microscope (Carl Zeiss AG, Oberkochen, Baden-Württemberg, Germany). Cell images were acquired at excitation/emission wavelengths of 649/666 nm, 482/536 nm, 555/582 nm, and 385/461 nm for stained LC3 puncta, aggregates, P62, and nuclei, respectively. For colocalization, 300 cells from three independent experiments were analyzed and quantified for the proportion of pixels that LC3 (red) colocalized with P62 (yellow) using Mander’s overlap coefficient (MOC) in ZEN software version 2.1 (Carl Zeiss AG).

ATXN3-Q75-VC and VN-LC3 = assay: Co-immunoprecipitation of VN-LC3 with ATXN3-Q75-VC in mixed 293T cell lysates; format: binding; details: compound 100 µM; compared to without compound treatment
Excerpt: EcoRI-NcoI ATXN3 C-terminal Q14 and Q75-containing fragment (amino acids 251–361 in full-length ATXN3-Q14 [NM_004993]; [20]) and NcoI-NotI Venus C-terminal fragment (VC212-239) were subcloned into EcoRI- and NotI-digested pcDNA3 vector (Invitrogen) to generate pcDNA3-ATXN3-Q14−75-VC plasmid for producing ATXN3-Q14−75-VC fusion protein linked by a 6-amino acid polypeptide linker (containing NcoI restriction site). In addition, BamHI-XbaI Venus-N-terminal fragment (VN1-211) and XbaI-BamHI LC3 cDNA fragment (MAP1LC3B, NM_022818) were subcloned into BamHI-digested pcDNA5/FRT/TO vector (Invitrogen) to generate pcDNA5-VN-LC3 plasmid for producing VN-LC3 fusion protein linked by a 2-amino acid dipeptide linker (containing XbaI restriction site). The recombinant pcDNA3-ATXN3-Q14-VC, pcDNA3-ATXN3-Q75-VC, or pcDNA5-VN-LC3 plasmid (2 μg) was transiently transfected into 293T cells (2 × 10^5/6-well) using T-Pro non-liposome transfection reagent II (T-Pro Biotechnology #JT97-N002M, New Taipei City, Taiwan) according to the supplier’s instruction. After 48 h, cell lysate containing ATXN3-Q14-VC, ATXN3-Q75-VC, or VN-LC3 fusion protein was prepared using cytoskeleton (CSK) buffer containing 10 mM PIPES, 100 mM NaCl, 300 mM sucrose, 1 mM EGTA, 1 mM MgCl2, and 1 mM DTT and quantified, as described.
In this case, 293T cell lysates with transiently expressed ATXN3-Q14-VC, ATXN3-Q75-VC, or VN-LC3, and mixture of ATXN3-Q75-VC and VN-LC3 (100 μg of each) in 400 μL CSK buffer were incubated at 4 °C under gentle rotation. To test the concept of the ATTEC, 100 μM of the compound (NC009-1, -2, and -6 or LM-031) was added to the lysates containing ATXN3-Q75-VC and VN-LC3 proteins. After overnight incubation, ATXN3-Q14−75-VC protein was immunoprecipitated with rabbit ataxin-3 (1:1000; Invitrogen #PA5-26251) or mouse 5TF1-1C2 antibody (1:500; Merck #MAB1574, Darmstadt, Germany) at 4 °C overnight. […] The immune complexes were detected using HRP-conjugated goat anti-rabbit (#GTX213110-01) or goat anti-mouse (#GTX213111-01) IgG antibody (1:5000; GeneTex) and chemiluminescent substrate, as described.

[3] = system: human ATXN3-Q75-GFP SH-SY5Y cells; assay: MTT compound cytotoxicity assay; format: cell-based; details: 0.1–100 μM compound, viability analyzed the next day, n = 3
Method: as §1

Compound | IC50 at 1 day [1] [µM] | Colocalization coefficient of ATXN3-Q75-GFP with LC3 puncta [2] | Colocalization coefficient of LC3 with P62 [2] | LC3 puncta per cell [2] | Amount of VN-LC3 co-immunoprecipitated by 5TF1-1C2 antibody (ATXN3-Q75-VC and VN-LC3) | IC50 [3] [µM]
O=C(c1ccccc1)c1cc2c(O)cccc2oc1=O [LM-031] | > 100 | 0.025–0.030 | 0.26–0.29 | 4.6–6.7 | notably increased | –
CC(=O)/C(=C\c1ccccc1[N+](=O)[O-])Cc1c(C)[nH]c2ccccc12 [NC009-2] | 124 | 0.025–0.030 | 0.26–0.29 | 4.6–6.7 | notably increased | > 100
CC(=O)/C(=C\c1ccccc1[N+](=O)[O-])Cc1c[nH]c2ccccc12 [NC009-1] | 111 | 0.025–0.030 | 0.26–0.29 | 4.6–6.7 | notably increased | > 100
